biological target: T1, M2(S31) (Influenza A virus, UniProt P0DOF5); experiment: Cell-free electrophysiology of M2 proton channels on solid supported membranes (IonGate SURFE2R screen); type: biochemical; conditions: 25 μM inhibitor, activation by pH jump 7.0 to 6.0, % inhibition=100×(1−I/Io), 25 µM
T1 construct: expressed in transfected cells; host or cells: CHO cells (membrane preparation adsorbed to SSM sensors)
T1 sequence (P0DOF5 whole entry): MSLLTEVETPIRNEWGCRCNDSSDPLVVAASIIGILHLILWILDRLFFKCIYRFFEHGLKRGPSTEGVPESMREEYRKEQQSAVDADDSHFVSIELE

For `N=C(N)NC1C2CC3CC1CC(Cl)(C3)C2` (stereo not drawn) [Example 23], the “IonGate_M2(S31)_Screen % Inhibition at 25 μM” value was “B (11-50% (B))”.
For `N#CC1C2CC3CC1CC(O)(C3)C2` (stereo not drawn) [Example 8], the “IonGate_M2(S31)_Screen % Inhibition at 25 μM” value was “B (11-50% (B))”.
In the case of `N=C(N)NC1C2CC3CC1CC(Cl)(C3)C2` (stereo not drawn) [Example 24], the “IonGate_M2(S31)_Screen % Inhibition at 25 μM” value is reported as “A (51-95% (A))”.
In the case of `N#CC1C2CC3CC1CC(O)(C3)C2` (stereo not drawn) [Example 9], the “IonGate_M2(S31)_Screen % Inhibition at 25 μM” value is reported as “C (1-10% (C))”.

same assay, conditions: 25 μM inhibitor, activation by pH jump 7.0 to 6.0, % inhibition=100×(1−I/Io), read-out: IonGate_M2(S31)_Screen % Inhibition at 25 μM

First: O=[N+]([O-])C1C2CC3CC(C2)CC1(O)C3 (stereo not drawn) [Example 20]
Second: NC1C2CC3CC(C2)CC1(O)C3 (stereo not drawn) [Example 19]
The inhibition at 25 µM of the first is lower: 11 to 50% for the first, 51 to 95% for the second.

`O=C1C(=O)C2CC3CC1CC(Cl)(C3)C2` [Example 40] and `O=C1C(=O)C2CC3CC1CC(O)(C3)C2` [Example 35] fall in the same range of inhibition at 25 µM: 1 to 10% for the first, 1 to 10% for the second.

First: COC12CC3CC(C1)C(C#N)C(C3)C2 (stereo not drawn) [Example 44]
Second: N#CC1C2CC3CC1CC(Cl)(C3)C2 (stereo not drawn) [Example 12]
The inhibition at 25 µM of the first is lower: 1 to 10% for the first, 11 to 50% for the second.

First: NC1C2CC3CC(CC(Cl)(C3)C2)C1N (stereo not drawn) [Example 43]
Second: NC1C2CC3CC1CC(Cl)(C3)C2 (stereo not drawn) [Example 15]
The inhibition at 25 µM of the first is lower: 1 to 10% for the first, 51 to 95% for the second.

`NC1CC2CC3CC1CC(Cl)(C2)C3` (stereo not drawn) [Example 39] and `NC1CC2CC3CC1CC(O)(C2)C3` (stereo not drawn) [Example 33] fall in the same range of inhibition at 25 µM: 11 to 50% for the first, 11 to 50% for the second.

Compared with `NC1C2CC3CC(C2)CC(C3)C1N` (stereo not drawn) [Example 30], `NC1C2CC3CC(C2)CC1C3` (stereo not drawn) [Example 26] is lower in inhibition at 25 µM: 51 to 95% for the first, 11 to 50% for the second.

`OC12CC3CC(C1)C(n1ccnc1)C(C3)C2` (stereo not drawn) [Example 4, 4-imidazol-1-yladamantan-1-ol] and `NC1C2CC3CC1CC(O)(C3)C2` (stereo not drawn) [Example 3] fall in the same range of inhibition at 25 µM: 11 to 50% for the first, 11 to 50% for the second.

`O=C1CC2CC3CC1CC(Cl)(C2)C3` (stereo not drawn) [Example 37] and `O=C1CC2CC3CC1CC(O)(C2)C3` (stereo not drawn) [Example 31] fall in the same range of inhibition at 25 µM: 11 to 50% for the first, 11 to 50% for the second.

`OC1C2CC3CC(CC(O)(C3)C2)C1O` (stereo not drawn) [Example 36] and `OC1C2CC3CC(CC(Cl)(C3)C2)C1O` (stereo not drawn) [Example 41] fall in the same range of inhibition at 25 µM: 1 to 10% for the first, 1 to 10% for the second.

First: N=C(N)C1C2CC3CC(C2)CC1C3 (stereo not drawn) [Example 11]
Second: C1C2CC3CC1CC(C2)C1NC31 (stereo not drawn) [Example 27]
The inhibition at 25 µM of the first is higher: 51 to 95% for the first, 11 to 50% for the second.

First: N=C(N)C1C2CC3CC1CC(Cl)(C3)C2 (stereo not drawn) [Example 14]
Second: O=[N+]([O-])C1C2CC3CC1CC(Cl)(C3)C2 (stereo not drawn) [Example 18]
The inhibition at 25 µM of the first is higher: 51 to 95% for the first, 1 to 10% for the second.

`O/N=C1\CC2CC3CC1CC(Cl)(C2)C3` (stereo not drawn) [Example 38] and `O/N=C1\CC2CC3CC1CC(O)(C2)C3` (stereo not drawn) [Example 32] fall in the same range of inhibition at 25 µM: 11 to 50% for the first, 11 to 50% for the second.

`OCCNC1C2CC3CC(C2)CC1C3` (stereo not drawn) [Example 2] and `N#CC1C2CC3CC(C2)CC1C3` (stereo not drawn) [Example 16] fall in the same range of inhibition at 25 µM: 51 to 95% for the first, 51 to 95% for the second.

`O=C1C(=O)C2CC3CC(CC1C3)C2` [Example 28] and `O/N=C1\C(=N\O)C2CC3CC(CC1C3)C2` [Example 29] fall in the same range of inhibition at 25 µM: 11 to 50% for the first, 11 to 50% for the second.

Compared with `NCC1(O)C2CC3CC1CC(O)(C3)C2` (stereo not drawn) [Example 6], `NCC1(O)C2CC3CC(C2)CC1C3` (stereo not drawn) [Example 1] is higher in inhibition at 25 µM: 11 to 50% for the first, 51 to 95% for the second.

First: NC1C2CC3CC1CC(S)(C3)C2 (stereo not drawn) [Example 22]
Second: NCC1C2CC3CC1CC(O)(C3)C2 (stereo not drawn) [Example 5]
The inhibition at 25 µM of the first is higher: 51 to 95% for the first, 11 to 50% for the second.

First: OC12CC3CC(C1)C1NC1C(C3)C2 (stereo not drawn) [Example 34]
Second: C1NC2C3CC4CC(C3)CC2(C4)O1 (stereo not drawn) [Example 21]
The inhibition at 25 µM of the first is lower: 11 to 50% for the first, 51 to 95% for the second.

With `ON=C1C(=NO)C2CC3CC1CC(Cl)(C3)C2` [Example 42] the inhibition at 25 µM was 11 to 50%.

From patent publication US20110065762A1, “METHODS OF USE OF ANTIVIRAL COMPOUNDS” (priority 2009, published 2011)
